Source: patent publication US20070212449A1, “Reduction of the titratable acidity and the prevention of tooth and other bone degeneration” (priority 2006, published 2007)

Legend:
[1] = test system: MG-63 osteoblast cells; assay: MTT-based proliferation assay, osteoblast cells; type: cell-based, human
Procedure: (§1) Human osteoblast MG-63 cells and HS-883 osteoclast cells were treated with IP6 in vitro and their abilities to proliferate and differentiate were evaluated by MTT-based cytotoxicity assay (for proliferation) and alkaline phosphatase (ALP) and matrixmetalloproteinase-2 (MMP-2), activity for differentiation of bone cells.
(§2) In an additional study, osteoblast MG-63 human osteosarcoma cells and osteoclast HS-883.T human bone giant sarcoma cells were cultured in Eagle's Minimum Essential Medium, in Eagle's Balanced Salt Solution with non-essential amino-acids and Dulbecco's Modified Eagles Medium, respectively. Both media were supplemented with 10% fetal bovine serum (FBS) and L-glutamine. Additionally, 1 mM of sodium pyruvate was added to culture media for MG-63 cells.
(§3) Stock solution of 100 mM Na-IP6 was prepared in distilled water, pH adjusted to 7.4, and diluted as needed in culture media.
(§4) Cell growth and proliferation were determined with the MTT-based cytotoxicity assay. Briefly, the MG-63 and HS-883.T cell lines were seeded into 96-well plates at a density 2000 cells per well. […] Cells were allowed to proliferate for 24 or 72 hours. 100 μL of MTT solution at concentration I mg/ml was added at the end of proliferation period to each well and allowed to incubate for 4 hours. The formazan product of MTT reduction was dissolved by adding 150 μL of DMSO. Immediately after, growth changes were evaluated by recording the reduction of MTT at 540 nm in a plate reader using data reduction software for measurement of optical density.

[2] = Effect of IP6 and inositol additions on % TA of soft drinks; type: physicochemical
Procedure: Titratable (total) acidity measures the total or potential acidity and indicates the total number of acid molecules, whereas a pH measurement represents the hydrogen ion concentration. The titratable acidity (as % citric acid) is calculated by titrating the beverage against sodium hydroxide (NaOH) solution to pH 8.2 and using the following relationship: [formula] in accordance with the standard procedures for determining the titratable acidity of a variety of fluids, including milk.

[3] = test system: alkaline phosphatase (ALP); assay: ALP activity in osteoblast cells (differentiation marker); type: cell-based, human; conditions: MG-63 cells
Procedure: as §1, with “cells. IP6 activates ALP and MMP-2 expression in osteoblast cells, indicating their better ability to lay new bone.” for “cells.”
(§5) To study the osteoblast and osteoclast differentiation in the presence of IP6, the following markers were evaluated: alkaline phosphatase (ALP), matrix metalloproteinase-2 (MMP-2) and tartrate-resistant acid phosphatase (TRAP).
ALP activity was measured using a commercially available kit. Osteoblast cells were plated in tissue culture dishes in amount of 4×10^5 cells per plate. […] Incubation was stopped on ice; cells were washed twice with PBS and lysed with 0.25% of Triton X-100. 25 μL of lysate was mixed with 2.5 mL of ALP sample buffer, incubated for 4 or 24 hours in room temperature and absorption was read in a plate reader at λ405 nm.

[4] = test system: HS-883 osteoclast cells; assay: MTT-based proliferation assay, osteoclast cells; type: cell-based, human
Procedure: as §1, §2, §3, §4

[5] = Enamel dissolution (weight loss of enamel) in soft drinks with or without phytic acid; design: species or system human; conditions: for effect on enamel dissolution: addition of 1% phytic acid (FIG. 10)
Procedure: For instance, studies were performed on sections of enamel removed from extracted human teeth as well as on extracted human teeth that were coated such that only the crown of the tooth (the enamel portion) was exposed to the beverage. […] These enamel specimens were immersed in the various soft drinks with or without additions of 0.5 and 1.0% by weight of dodecasodium salt of phytic acid (Inositol hexaphosphoric acid). The enamel dissolution was determined as the weight loss of the enamel at different time intervals in the untreated and treated beverages, as shown in FIGS. 7 and 8.

[6] = test system: matrix metalloproteinase-2 (MMP-2); assay: MMP-2 (gelatinase A) zymography, culture media of osteoblast cells; type: cell-based, human; conditions: for activity of gelatinase A in culture media: osteoblast cells
Procedure: as §1, with “cells. IP6 activates ALP and MMP-2 expression in osteoblast cells, indicating their better ability to lay new bone.” for “cells.”
as §5
(§6) To evaluate MMPs activity in culture medium zymography was performed. Cells were plated in tissue culture dishes, allowed to grow to 60 -70% confluence and then were treated with different concentrations of IP6 in serum free media. After 48 hours conditioned media was collected and immediately analyzed for matrix metalloproteinase activity. 10% Polyacrilamide gels were used to perform electrophoresis, following which gels were incubated in renaturating buffer for 30 minutes with gentle agitation. Incubation was continued in developing buffer overnight at 37° C. At the end of incubation time gels were stained with Comassie blue staining solution for 10 minutes, rinsed with destaining solution one (9.2% acetic acid, 45.4% methanol) and incubated with destaining solution two (10% acetic acid and 10% methanol) at room temperature as needed. Proteinase activity was measured using UN-SCAN-IT gel digitizing software for Windows and expressed as percentage according to the amount of determined Pixel average for each band.

[7] = test system: matrix metalloproteinase-2 (MMP-2); assay: MMP-2 zymography, culture media of osteoclast cells; type: cell-based, human; conditions: 100 and 300 μM of IP6
Procedure: as §5, §6

With `C[C@]12CCC(=O)C=C1CC[C@@H]1[C@@H]2[C@@H](O)C[C@@]2(C)[C@H]1CC[C@]2(O)C(=O)CO` [Hydrocortisone, hydrocortisone, reference compound] the “reduction of the number of osteoblast cells” value ([1]; 10 μM hydrocortisone, p < 0.05) was 30.5%.

With `O=P(O)(O)O[C@H]1[C@H](OP(=O)(O)O)[C@@H](OP(=O)(O)O)[C@H](OP(=O)(O)O)[C@@H](OP(=O)(O)O)[C@H]1OP(=O)(O)O` [IP6, inositol hexaphosphate] the “effect on titratable acidity” value ([2]; Fresca, 0.5% addition (FIG. 9)) was “reduction in titratable acidity”, the “effect on titratable acidity” value ([2]; Mountain Dew, 1.0% addition (FIG. 9)) was “reduction in titratable acidity” and the “effect on titratable acidity” value ([2]; Sprite, 0.5% addition (FIG. 9)) was “reduction in titratable acidity”. For the same compound, the “absorbance at 540 nM (MTT), mean ± SD” value ([1]; Na-IP6 50 μM + 70 μM inositol with 10 μM hydrocortisone) was 1.73 ± 0.03, the “absorbance at 540 nM (MTT), mean ± SD” value ([1]; Na-IP6 50 μM + 70 μM inositol, no hydrocortisone (control 1.54 ± 0.12)) was 1.69 ± 0.09 and the “effect on hydrocortisone suppression of osteoblast growth/proliferation” value ([1]; with 10 μM hydrocortisone, 50-300 μM sodium salt of IP6 and 70 μM inositol) was “opposes the negative effect of hydrocortisone”. For the same compound, the “ALP activity/expression in osteoblast cells” value [3] was “activates”, the “absorbance at 540 nm (MTT), mean ± SD” value ([4]; 300 μM Na-IP6 + 70 μM inositol with 10 μM hydrocortisone) was 0.45 ± 0.02 and the “absorbance at 540 nm (MTT), mean ± SD” value ([4]; 300 μM Na-IP6 + 70 μM inositol, no hydrocortisone (control 0.52 ± 0.01)) was 0.34 ± 0.02. For the same compound, the “proliferation of osteoclast cells” value ([4]; in vitro IP6 treatment) was “suppresses the proliferation”, the “effect on enamel dissolution” value ([5]; 5% lemon juice) was “reduction in enamel dissolution” and the “effect on enamel erosivity” value ([5]; Mountain Dew beverage (FIG. 7)) was “reducing enamel erosivity”. For the same compound, the “effect on enamel dissolution” value ([5]; Mountain Dew) was “reduction in enamel dissolution”, the “effect on enamel erosivity” value ([5]; Red Bull beverage (FIG. 8)) was “reducing enamel erosivity” and the “MMP-2 expression in osteoblast cells” value ([6]; MG-63 cells) was “activates”. For the same compound, the “activity of gelatinase A in culture media” value ([6]; 300 μM of IP6) was “Significant increase of activity”, the “activity of gelatinase A in culture media” value ([6]; IP6 50 to 300 μM, 48 hours) was “increased the activity of gelatinase A” and the “pro-MMP-2 and MMP-2 activity” value [7] was “decrease”.

In the case of `O=P([O-])([O-])O[C@H]1[C@H](OP(=O)([O-])O)[C@H](OP(=O)([O-])[O-])[C@H](OP(=O)([O-])O)[C@@H](OP(=O)([O-])[O-])[C@@H]1OP(=O)([O-])O.[Na+].[Na+].[Na+].[Na+].[Na+].[Na+].[Na+].[Na+].[Na+]` [Na-IP6, dodecasodium inositol hexaphosphate], the “% TA” value ([2]; Fresca, after addition of 0.5 g Ca-Mg IP6 + Inositol or 1 g Na-IP6 (beverage alone 0.46)) is reported as 0.0% and the “% TA” value ([2]; Red Bull, after addition of 0.5 g Ca-Mg IP6 + Inositol or 1 g Na-IP6 (beverage alone 1.04)) is reported as 0.22%.
